Measured values from article PMC10833116 (Journal of Enzyme Inhibition and Medicinal Chemistry, 2024).

These compounds were tested on adult female Wistar rats (assay: Gastric ulcerogenic activity). Settings: fasted rats.
Assay type: in vivo, rat
For `Cc1ccc(C(C)C)c(O)c1C=NN=c1scc(-c2ccccc2)n1-c1ccccc1Cl` [Compound 6b, 2-((2-Hydroxy-3-isopropyl-6-methylbenzylidene)hydrazono)-3-(2-chlorophenyl)-4-phenyl-2,3-dihydrothiazole], the “Gastric ulcerogenic potential, gross examination” value (shortened to “Gastric ulcerogenic potential”) was “no ulceration”. With `Cc1ccc(C(C)C)c(O)c1C=NN=c1scc(-c2ccc(Br)cc2)n1-c1ccccc1Cl` [Compound 6f, 2-((2-Hydroxy-3-isopropyl-6-methylbenzylidene)hydrazono)-3-(2-chlorophenyl)-4-(4-bromophenyl)-2,3-dihydrothiazole] the “Gastric ulcerogenic potential” value was “no ulceration”. With `Cc1ccc(C(C)C)c(O)c1C=NN=c1scc(-c2ccccc2)n1-c1ccccc1` [Compound 6a, 2-((2-Hydroxy-3-isopropyl-6-methylbenzylidene)hydrazono)-3,4-diphenyl-2,3-dihydrothiazole] the “Gastric ulcerogenic potential” value was “no ulceration”. In the case of `O=C(O)Cc1ccccc1Nc1c(Cl)cccc1Cl` [Diclofenac sodium, diclofenac sodium, reference compound], the “Gastric ulcerogenic potential” value is reported as “no ulceration”. With `Cc1ccc(-c2cc(C(F)(F)F)nn2-c2ccc(S(N)(=O)=O)cc2)cc1` [Celecoxib, celecoxib, reference compound] the “Gastric ulcerogenic potential” value was “no ulceration”.
